Structures can show the parent of a compound that is named as a salt.
Columns and labels:
[1] = tested on: Lasered (Hypertensive) Eyes of Conscious Cynomolgus Monkeys; experiment: Acute IOP Response in Lasered (Hypertensive) Eyes of Conscious Cynomolgus Monkeys; type: in vivo, Cynomolgus monkey; conditions: lasered eye
Description: Acute IOP Response in Lasered (Hypertensive) Eyes of Conscious Cynomolgus Monkeys
Intraocular pressure (IOP) was determined with an Alcon Pneumatonometer after light corneal anesthesia with 0.1% proparacaine. Eyes were washed with saline after each measurement. After a baseline IOP measurement, test compound was instilled in one 30 μL aliquot to the right eyes only of nine cynomolgus monkeys. Vehicle was instilled in the right eyes of six additional animals. Subsequent IOP measurements were taken at 1, 3, and 6 hours. A compound is considered efficacious in this model of ocular hypertension if there is a decrease in the baseline IOP of the lasered eye (O.D.) of at least 20% following topical administration.

5-HT2 receptor = molecular target: T1, 5-HT2 receptor (Rattus norvegicus, UniProt P14842); experiment: 5-HT2 Functional Assay: Phosphoinositide (PI) Turnover Assay; type: cell-based; conditions: for Emax: A7r5 cells, relative to 5-HT set at 100%, read-out: Efficacy (Emax, %); for EC50: [3H]inositol phosphate production in A7r5 rat vascular smooth muscle cells
T1 construct: [^3H]myo-inositol-labeled A7r5 rat vascular smooth muscle cells; endogenous in cells; host or cells: A7r5 rat vascular smooth muscle cells
Description: 5-HT2 Functional Assay: Phosphoinositide (PI) Turnover Assay
The relative agonist activity of serotonergic compounds at the 5-HT2 receptor can be determined in vitro using the ability of the compounds to stimulate the production of [^3H]inositol phosphates in [^3H]myo-inositol-labeled A7r5 rat vascular smooth muscle cells by their ability to activate the enzyme phospholipase C. These cells are grown in culture plates, maintained in a humidified atmosphere of 5% CO2 and 95% air and fed semi-weekly with Dulbecco's modified Eagle medium (DMEM) containing 4.5 g/l glucose and supplemented with 2 mM glutamine, 10 μg/ml gentamicin, and 10% fetal bovine serum. For the purpose of conducting the phosphoinositide (PI) turnover experiments, the A7r5 cells are cultured in 24-well plates as previously [J. Pharmacol. Expt. Ther., 286, 411 (1998)]. Confluent cells are exposed for 24-30 hrs to 1.5 μCi [^3H]-myo-inositol (18.3 Ci/mmol) in 0.5 ml of serum-free medium. Cells are then rinsed once with DMEM/F-12 containing 10 mM LiCl prior to incubation with the test agent (or solvent as the control) in 1.0 ml of the same medium for 1 hr at 37° C., after which the medium is aspirated and 1 ml of cold 0.1 M formic acid added to stop the reaction. The chromatographic separation of [^3H]-inositol phosphates ([^3H]-IPs) on an AG- 1-X8 column is performed as previously described [J. Pharmacol. Expt. Ther. 286, 411 (1998)] with sequential washes with H2O and 50 mM ammonium formate, followed by elution of the total [^3H]-IPs fraction with 1.2 M ammonium formate containing 0.1 M formic acid. The eluate (4 ml) is collected, mixed with 15 ml scintillation fluid, and the total [^3H]-IPs determined by scintillation counting on a beta-counter. Concentration-response data are analyzed by the sigmoidal fit function of the Origin Scientific Graphics software (Microcal Software, Northampton, Mass.) to determine agonist potency (EC50 value) and efficacy (Emax). Serotonin (5-HT) is used as a positive control (standard) agonist compound and the efficacy of test compounds is compared to that of 5-HT (set at 100%). The concentration of the compound needed to stimulate the production of [^3H]-IPs by 50% of the maximum response is termed the EC50 value.

brain 5-HT2 receptors = brain 5-HT2 receptors (Rattus norvegicus, UniProt P14842); experiment: 5HT2 Receptor Binding Assay ([125I]DOI competition); conditions: inhibition of [125I]DOI binding, rat or human cerebral cortex homogenates
Description: 5HT2 Receptor Binding Assay
Aliquots of post mortem rat or human cerebral cortex homogenates (400 μl) dispersed in 50 mM TrisHCl buffer (pH 7.4) are incubated with [^125I]DOI (80 pM final) in the absence or presence of methiothepin (10 μM final) to define total and non-specific binding, respectively, in a total volume of 0.5 ml. The assay mixture is incubated for 1 hour at 23° C. in polypropylene tubes and the assays terminated by rapid vacuum filtration over Whatman GF/B glass fiber filters previously soaked in 0.3% polyethyleneimine using ice-cold buffer. Test compounds (at different concentrations) are substituted for methiothepin. Filter-bound radioactivity is determined by scintillation spectrometry on a beta counter. The data are analyzed using a non-linear, iterative curve-fitting computer program [Trends Pharmacol. Sci., 16, 413 (1995)] to determine the compound affinity parameter. The concentration of the compound needed to inhibit the [^125I]DOI binding by 50% of the maximum is termed the IC50 value.

[2] = 1 hour after dose, 300 μg topical
[3] = 3 hours after dose, 300 μg topical
[4] = 6 hours after dose, 300 μg topical

T1 sequence (P14842 whole entry): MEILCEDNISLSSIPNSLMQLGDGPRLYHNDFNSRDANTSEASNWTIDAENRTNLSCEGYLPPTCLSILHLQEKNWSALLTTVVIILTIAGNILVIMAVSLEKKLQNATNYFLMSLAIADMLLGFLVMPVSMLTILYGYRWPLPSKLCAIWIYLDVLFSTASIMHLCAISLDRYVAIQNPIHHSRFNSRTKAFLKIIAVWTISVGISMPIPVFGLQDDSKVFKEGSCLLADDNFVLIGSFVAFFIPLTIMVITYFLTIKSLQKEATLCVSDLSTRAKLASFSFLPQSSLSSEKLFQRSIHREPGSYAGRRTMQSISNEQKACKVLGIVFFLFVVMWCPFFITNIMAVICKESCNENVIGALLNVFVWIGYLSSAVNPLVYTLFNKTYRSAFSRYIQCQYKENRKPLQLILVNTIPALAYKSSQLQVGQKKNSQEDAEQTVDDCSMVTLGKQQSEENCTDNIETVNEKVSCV
brain 5-HT2 receptors, sequence (P14842 whole entry): as above

## CC(N)Cc1c[nH]c2ccc3c(c12)CCCO3.Cl (stereo not drawn) [Example 3, 1-Methyl-2-(3,7,8,9-tetrahydro-pyrano[3,2-e]indol-1-yl)-ethylamine hydrochloride]
[1]; [2]
  Percent IOP Reduction ± SEM: 16.0 ± 3.79%
[1]; [3]
  Percent IOP Reduction ± SEM: 28.0 ± 5.49%
[1]; [4]
  Percent IOP Reduction ± SEM: 22.9 ± 6.70%
5-HT2 receptor
  Emax: 81%
  EC50: 116 nM

## COc1cc(C[C@@H](C)N)c(OC)cc1I [(R)-DOI, reference compound]
Brain 5-HT2 receptors
  IC50: 0.46 nM
[1]; 1 hour after dose, 100 μg topical
  Percent IOP Reduction ± SEM: 11.0 ± 4.98%
[1]; 3 hours after dose, 100 μg topical
  Percent IOP Reduction ± SEM: 25.3 ± 2.97%
[1]; 6 hours after dose, 100 μg topical
  Percent IOP Reduction ± SEM: 34.4 ± 4.98%
5-HT2 receptor
  EC50: 27.7 nM

## C[C@@H](N)Cc1c[nH]c2ccc3c(c12)CCCO3 [Example 4, (R)-1-Methyl-2-(3,7,8,9-tetrahydro-pyrano[3,2-e]indol-1-yl)ethylamine hydrochloride]
5-HT2 receptor
  Emax: 109%
  EC50: 111 nM

## CC(N)Cc1cn(C)c2ccc3c(c12)CCCO3 (stereo not drawn) (as salt: hydrochloride) [Example 1, 1-Methyl-2-(3-methyl3,7,8,9-tetrabydro-pyrano[3,2-e]indol-1-yl)-ethylamine hydrochloride]
other
  melting point: 214 to 217 °C

## CC(N)Cc1cn(C)c2ccc3c(c12)CCCO3 (stereo not drawn) [Example 1, 1-Methyl-2-(3-methyl3,7,8,9-tetrabydro-pyrano[3,2-e]indol-1-yl)-ethylamine hydrochloride]
[1]; [2]
  Percent IOP Reduction ± SEM: 18.8 ± 3.31%
[1]; [3]
  Percent IOP Reduction ± SEM: 28.0 ± 5.20%
[1]; [4]
  Percent IOP Reduction ± SEM: 26.1 ± 5.35%
5-HT2 receptor
  Emax: 119%
  EC50: 189 nM

## CC(N)Cc1c[nH]c2ccc3c(c12)CC(O)CO3.Cl (stereo not drawn) [Example 6, 1-(2-Aminopropyl)-3,7,8,9-tetrahydro-pyrano[3,2-e]indol-8-ol hydrochloride]
other
  melting point: 187 to 192 °C
5-HT2 receptor
  Emax: 92%
  EC50: 300 nM

Reference: US7012090B1, “Pyranoindoles for treating glaucoma” (Alcon, Inc., priority 2000, dated 2006)
